In patent publication US20230022400A1, “IMMUNOMODULATORS” (Bristol-Myers Squibb Company, priority 2019, published 2023) one finds IC50 data, which are given here for five compounds.

Where a SMILES comes first, the peptide text is derived from it. Bridges are numbered along the chain shown (N, C = ends). [ ]: non-standard residue; d: D form. The star is where a group is joined. Trp(1-CH2COOH) = N[C@@H](Cc1cn(CC(=O)O)c2ccccc12)C(=O)O; Hyp = O=C(O)[C@@H]1C[C@@H](O)CN1; X2 = CSc1nc(*)c2sc3ccccc3c2n1; X5 = c1ccc2c(c1)oc1c(*)ncnc12; NMeNle = CCCC[C@H](NC)C(=O)O; X4 = c1nc(*)c2c3c(sc2n1)CCC3; NMeA = CN[C@@H](C)C(=O)O; Dab = NCC[C@H](N)C(=O)O; Dap = NC[C@H](N)C(=O)O; X11 = COc1ccnc(*)n1; X12 = Brc1cnc(*)nc1

In general, IC50 refers to the concentration needed to halve the response being measured. Higher therefore signals weaker potency in that assay.

T1 sequence (Q9NZQ7 18-239): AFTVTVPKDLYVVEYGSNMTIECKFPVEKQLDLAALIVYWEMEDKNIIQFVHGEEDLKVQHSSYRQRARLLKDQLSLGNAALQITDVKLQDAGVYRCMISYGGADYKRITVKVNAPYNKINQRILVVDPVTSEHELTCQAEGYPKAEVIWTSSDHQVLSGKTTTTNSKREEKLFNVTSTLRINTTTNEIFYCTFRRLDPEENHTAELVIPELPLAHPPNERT

This assay has as its target T1, PD-1/PD-L1 interaction (PD-1-Ig / PD-L1-His) (Homo sapiens, UniProt Q9NZQ7).
T1 construct: TVMV protease site (linker) (C); made in house; host or cells: HEK293T cells
Description: PD-1/PD-L1 Homogenous Time-Resolved Fluorescence (HTRF) binding assay. Conditions: PD-L1-His 10 nM final, PD-1-Ig 20 nM final; inhibitors pre-incubated with PD-L1-His for 15 m. The method in brief: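 Inhibitors pre-incubated 15 min with PD-L1-His (10 nM final) in dPBS, 0.1% BSA, 0.05% Tween-20, then 15 min with PD-1-Ig (20 nM final). Eu-cryptate anti-Ig (1 nM) and APC anti-His (20 nM) added, 30 min equilibration; HTRF 665/620 nm ratio. Human ECD proteins from HEK293T.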
Background: TR-FRET usually uses a lanthanide donor and a delayed reading to cut background.
Consider `CCCC[C@H]1C(=O)N(C)[C@@H](CCCC)C(=O)N[C@@H](CC(C)C)C(=O)N[C@H](C(=O)NCC(N)=O)CSCC(=O)N[C@@H](Cc2ccc(O)cc2)C(=O)N(C)[C@@H](C)C(=O)N[C@@H](CC(N)=O)C(=O)N2CCC[C@H]2C(=O)N[C@@H](CNc2nccc(OC)n2)C(=O)N[C@@H](CC(C)C)C(=O)N2C[C@H](O)C[C@H]2C(=O)N[C@@H](Cc2c[nH]c3ccccc23)C(=O)N[C@@H](CCN)C(=O)N[C@@H](Cc2cn(CC(=O)O)c3ccccc23)C(=O)N1C` [Compound 1001] ({CH2CO}-Y[NMeA]NP[Dap](X11)L[Hyp]W[Dab][Trp(1-CH2COOH)][NMeNle][NMeNle]LCG-NH2; thioether N-14), for which the IC50 worked out at 5.4 nM. That is a single-digit nanomolar value.

Take `CCCC[C@H]1C(=O)N(C)[C@@H](CCCC)C(=O)N[C@@H](CC(C)C)C(=O)N[C@H](C(=O)NCC(N)=O)CSCC(=O)N[C@@H](Cc2ccc(O)cc2)C(=O)N(C)[C@@H](C)C(=O)N[C@@H](CC(N)=O)C(=O)N2CCC[C@H]2C(=O)N[C@@H](CNc2ncnc3sc4c(c23)CCC4)C(=O)N[C@@H](CC(C)C)C(=O)N2C[C@H](O)C[C@H]2C(=O)N[C@@H](Cc2c[nH]c3ccccc23)C(=O)N[C@@H](CCNc2ncnc3sc4c(c23)CCC4)C(=O)N[C@@H](Cc2cn(CC(=O)O)c3ccccc23)C(=O)N1C` [Compound 21012] ({CH2CO}-Y[NMeA]NP[Dap](X4)L[Hyp]W[Dab](X4)[Trp(1-CH2COOH)][NMeNle][NMeNle]LCG-NH2; thioether N-14): the IC50 is 14 nM.

Compound `CCCC[C@H]1C(=O)N(C)[C@@H](CCCC)C(=O)N[C@@H](CC(C)C)C(=O)N[C@H](C(=O)NCC(N)=O)CSCC(=O)N[C@@H](Cc2ccc(O)cc2)C(=O)N(C)[C@@H](C)C(=O)N[C@@H](CC(N)=O)C(=O)N2CCC[C@H]2C(=O)N[C@@H](CNc2ncnc3c2oc2ccccc23)C(=O)N[C@@H](CC(C)C)C(=O)N2C[C@H](O)C[C@H]2C(=O)N[C@@H](Cc2c[nH]c3ccccc23)C(=O)N[C@@H](CCNc2ncnc3c2oc2ccccc23)C(=O)N[C@@H](Cc2cn(CC(=O)O)c3ccccc23)C(=O)N1C` [Compound 21010] ({CH2CO}-Y[NMeA]NP[Dap](X5)L[Hyp]W[Dab](X5)[Trp(1-CH2COOH)][NMeNle][NMeNle]LCG-NH2; thioether N-14) returned an IC50 of 3.9 nM. With `CCCC[C@H]1C(=O)N(C)[C@@H](CCCC)C(=O)N[C@@H](CC(C)C)C(=O)N[C@H](C(=O)NCC(N)=O)CSCC(=O)N[C@@H](Cc2ccc(O)cc2)C(=O)N(C)[C@@H](C)C(=O)N[C@@H](CC(N)=O)C(=O)N2CCC[C@H]2C(=O)N[C@@H](CNc2nc(SC)nc3c2sc2ccccc23)C(=O)N[C@@H](CC(C)C)C(=O)N2C[C@H](O)C[C@H]2C(=O)N[C@@H](Cc2c[nH]c3ccccc23)C(=O)N[C@@H](CCN)C(=O)N[C@@H](Cc2cn(CC(=O)O)c3ccccc23)C(=O)N1C` [Compound 21008] ({CH2CO}-Y[NMeA]NP[Dap](X2)L[Hyp]W[Dab][Trp(1-CH2COOH)][NMeNle][NMeNle]LCG-NH2; thioether N-14) the figure was 6.5 nM; with `CCCC[C@H]1C(=O)N(C)[C@@H](CCCC)C(=O)N[C@@H](CC(C)C)C(=O)N[C@H](C(=O)NCC(N)=O)CSCC(=O)N[C@@H](Cc2ccc(O)cc2)C(=O)N(C)[C@@H](C)C(=O)N[C@@H](CC(N)=O)C(=O)N2CCC[C@H]2C(=O)N[C@@H](CNc2ncc(Br)cn2)C(=O)N[C@@H](CC(C)C)C(=O)N2C[C@H](O)C[C@H]2C(=O)N[C@@H](Cc2c[nH]c3ccccc23)C(=O)N[C@@H](CCNc2ncc(Br)cn2)C(=O)N[C@@H](Cc2cn(CC(=O)O)c3ccccc23)C(=O)N1C` [Compound 1010] ({CH2CO}-Y[NMeA]NP[Dap](X12)L[Hyp]W[Dab](X12)[Trp(1-CH2COOH)][NMeNle][NMeNle]LCG-NH2; thioether N-14), 4.9 nM.
